From PMC10650415, “Synthesis of Tetracyclic Spirooxindolepyrrolidine-Engrafted Hydantoin Scaffolds: Crystallographic Analysis, Molecular Docking Studies and Evaluation of Their Antimicrobial, Anti-Inflammatory and Analgesic Activities” (Molecules, 2023)
Converted amounts (≈) assume the structure as drawn.

Tests used:
P. aeruginosa ATCC 27950 = assay: MBC by the agar method; settings: Pseudomonas aeruginosa, ATCC27950
Experimental: (§2) To further determine the killing efficiency of the synthesized spiropyrrolidines against selected strains, the minimum bactericidal concentration (MBC) and the minimum fungicidal concentration (MFC) were assessed by the agar method [54].

E. coli ATCC 25922 = assay: MBC by the agar method; settings: Escherichia coli, ATCC25922, E. coli ATCC 25922
Experimental: as §2

[1] = test system: acetic acid-induced writhing; assay: Acetic acid-induced writhing test (analgesic); settings: 100 mg/kg; for Number of Writhing: mean ± SE
Experimental: Any writhing was considered a positive response. The efficacy and potency of analgesic activity of the test compounds is inferred from the reduction in the frequency of writhings [53].
Analgesic activity in rats was determined by the protocol described by Tiss et al. [82].

[2] = molecular target: T1, Lipoxygenase-5 (LOX-5) enzyme (Homo sapiens, UniProt P09917); assay: In vitro lipoxygenase (LOX-5) inhibitory assay; assay type: biochemical; settings: mean ± SEM, n = 5; read-out: IC50 (LOX-5 inhibition) (converted)
T1 construct: purchased sigma 437996-500U
T1 sequence (P09917 1-674): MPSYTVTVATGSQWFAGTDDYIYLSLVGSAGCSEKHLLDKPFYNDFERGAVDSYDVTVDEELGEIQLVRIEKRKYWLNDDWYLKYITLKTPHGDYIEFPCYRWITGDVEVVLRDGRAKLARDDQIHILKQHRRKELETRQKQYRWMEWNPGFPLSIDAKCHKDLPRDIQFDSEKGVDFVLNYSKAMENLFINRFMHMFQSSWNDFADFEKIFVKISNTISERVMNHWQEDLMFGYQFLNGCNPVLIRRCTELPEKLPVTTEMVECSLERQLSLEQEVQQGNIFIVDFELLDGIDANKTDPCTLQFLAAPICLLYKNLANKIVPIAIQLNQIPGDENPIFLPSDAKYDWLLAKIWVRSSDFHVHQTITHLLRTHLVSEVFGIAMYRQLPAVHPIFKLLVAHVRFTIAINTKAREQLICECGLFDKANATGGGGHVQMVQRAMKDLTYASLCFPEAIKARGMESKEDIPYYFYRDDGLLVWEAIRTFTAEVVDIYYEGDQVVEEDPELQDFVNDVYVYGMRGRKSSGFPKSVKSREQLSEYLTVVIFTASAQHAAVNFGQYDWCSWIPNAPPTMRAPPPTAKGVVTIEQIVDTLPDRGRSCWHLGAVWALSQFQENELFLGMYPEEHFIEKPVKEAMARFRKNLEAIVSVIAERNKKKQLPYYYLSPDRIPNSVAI
Experimental: Lipoxygenases are a family of monomeric proteins that catalyze oxidation of polyunsaturated fatty acids (PUFA) (linoleic, linolenic and arachidonic acid) to produce hydroperoxides. Fractions’ anti-LOX activity was also measured as inhibition of linoleic acid’s peroxidation to hydroperoxylinoleic acid.
To evaluate the prospects of the newly synthesized spirooxindoles as promising drug candidates, we first studied their inhibitory potency against the Lipoxygenase-5 (LOX-5) enzyme.

[3] = test system: λ-carrageenan-induced paw edema; assay: Carrageenan-induced paw edema test; assay type: in vivo; settings: rats; for Increase in Paw Volume, 0 h / Increase in Paw Volume, 1 h / Increase in Paw Volume, 2 h / Increase in Paw Volume, 4 h: 10 mg/kg orally 1 h before carrageenan; for % Inhibition of Edema, 1 h / % Inhibition of Edema, 2 h / % Inhibition of Edema, 4 h: 10 mg/kg orally
From the text: Diclofenac sodium was used as a reference drug.

M. luteus NCIMB 8166 = assay: MBC by the agar method; settings: Micrococcus luteus, NCIMB8166
Experimental: as §2

C. albicans ATCC 90028 = assay: MFC by the agar method; settings: for MFC/MIC ratio: C. Albicans, ≤ 4 fungicidal, >4 fungistatic; for MFC: Candida albicans, ATCC90028
Experimental: as §2

C. kreusei ATCC 6258 = assay: MFC by the agar method; settings: for MFC/MIC ratio: C. Krusei, ≤ 4 fungicidal, >4 fungistatic; for MFC: Pichia kudriavzevii, ATCC6258
Experimental: as §2

[4] = Acute toxicity (liver and kidney indices); assay type: in vivo; settings: rats; for ALT / AST / Albumin / Creat / Urea: dose of 16.25 mg/kg; for Acute toxicity (result in words): up to a dose of 16.25 mg/kg
S. aureus ATCC 25923 = assay: MBC by the agar method; settings: Staphylococcus aureus, ATCC25923
Experimental: as §2

[5] = test system: Staphylocoocus aureus ATCC 25923; assay: MIC, in vitro micro diffusion method; assay type: cell-based; settings: Staphylococcus aureus, ATCC25923; S. aureus ATCC 25923
From the text: (§1) In this part, the spiropyrrolidines 4a–m were selected to be screening for their antimicrobial activities, using in vitro micro diffusion method, against multiple bacterial strains (Staphylocoocus aureus ATCC 25923, Escherichia coli ATCC 25922, Pseudomonas aeruginosa ATCC 27950, Micrococcus luteus NCIMB 8166), and two pathogenic reference yeasts namely Candida albicans ATCC 90028 and Candida kreusei ATCC 6258.

[6] = test system: Candida kreusei ATCC 6258; assay: MIC, in vitro micro diffusion method; assay type: cell-based; settings: C. krusei ATCC 6258
From the text: as §1

[7] = test system: Micrococcus luteus NCIMB 8166; assay: MIC, in vitro micro diffusion method; assay type: cell-based; settings: NCIMB8166, M. luteus NCIMB 8166
From the text: as §1

Row | SMILES | MBC (P. aeruginosa ATCC 27950) | MBC (E. coli ATCC 25922) | % Inhibition (writhing) [1] | Number of Writhing [1] | IC50 [2] | Increase in Paw Volume, 0 h [3] | Increase in Paw Volume, 1 h [3] | Increase in Paw Volume, 2 h [3] | Increase in Paw Volume, 4 h [3] | % Inhibition of Edema, 1 h [3] | % Inhibition of Edema, 2 h [3] | MBC (M. luteus NCIMB 8166) | MFC/MIC ratio (C. albicans ATCC 90028) | MFC (C. albicans ATCC 90028) | MFC/MIC ratio (C. kreusei ATCC 6258) | MFC (C. kreusei ATCC 6258) | MBC (S. aureus ATCC 25923) | further results
1 | O=C1NC(=O)[C@]2(N1)[C@@H](c1ccc(F)cc1)[C@H](c1ccccc1)N[C@@]21C(=O)Nc2ccccc21 (racemic) [4i] | 188 µg/mL (≈ 424 µM) | 750 µg/mL (≈ 1700 µM) | 42% | 36 ± 5 | 2.28 mM | 0.43 ± 0.14 | 0.98 ± 0.11 | 1.13 ± 0.21 | 1.51 ± 0.13 | 27% | 25% | > 1500 µg/mL | ≤ 4 | 93.8 µg/mL (≈ 212 µM) | ≤ 4 | 188 µg/mL (≈ 424 µM) | 750 µg/mL (≈ 1700 µM) | % Inhibition of Edema, 4 h ([3]; 10 mg/kg): 33%; ALT [4]: 21.1 ± 1.5 U/L; AST [4]: 98.3 ± 13 U/L; Albumin [4]: 8.7 ± 1.66 g/L; Creat [4]: 3.31 ± 0.9 µmol/L; Urea [4]: 2.83 ± 0.7 mmol/L; Acute toxicity (result in words) [4]: did not cause any toxicity
2 | O=C1NC(=O)[C@]2(N1)[C@@H](c1ccc(F)cc1)[C@H](c1ccccc1)N[C@@]21C(=O)Nc2ccc(Cl)cc21 (racemic) [4j] | 93.8 µg/mL (≈ 197 µM) | 188 µg/mL (≈ 393 µM) |  |  | 4.03 mM |  |  |  |  |  |  | 750 µg/mL (≈ 1570 µM) |  | 93.8 µg/mL (≈ 197 µM) |  | 188 µg/mL (≈ 393 µM) | 93.8 µg/mL (≈ 197 µM) | melting point: 208 °C
3 | O=C1NC(=O)[C@]2(N1)[C@@H](c1ccc(F)cc1)[C@H](c1ccccc1)N[C@@]21C(=O)Nc2ccc(Br)cc21 (racemic) [4k] | 188 µg/mL (≈ 360 µM) | 188 µg/mL (≈ 360 µM) |  |  | 2.97 mM |  |  |  |  |  |  | > 1500 µg/mL | ≤ 4 | 188 µg/mL (≈ 360 µM) | ≤ 4 | 188 µg/mL (≈ 360 µM) | 188 µg/mL (≈ 360 µM) | melting point: 223 °C
4 | O=C1NC(=O)[C@]2(N1)[C@@H](c1ccccc1O)[C@H](c1ccccc1)N[C@@]21C(=O)Nc2ccccc21 (racemic) [4l] | 93.8 µg/mL (≈ 213 µM) | 188 µg/mL (≈ 426 µM) | 53% | 29 ± 6 | 2.47 mM | 0.57 ± 0.19 | 0.93 ± 0.13 | 1.26 ± 0.31 | 1.73 ± 0.33 | 29% | 18% | 750 µg/mL (≈ 1700 µM) | ≤ 4 | 188 µg/mL (≈ 426 µM) | ≤ 4 | 93.8 µg/mL (≈ 213 µM) | 93.8 µg/mL (≈ 213 µM) | % Inhibition of Edema, 4 h [3]: 32%; ALT [4]: 22 ± 1.7 U/L; AST [4]: 101 ± 11 U/L; Albumin [4]: 8.5 ± 1.1 g/L; Creat [4]: 3.41 ± 0.8 µmol/L; Urea [4]: 2.97 ± 0.5 mmol/L; Acute toxicity (result in words) [4]: did not cause any toxicity; MIC [5]: 46.9 µg/mL (≈ 106 µM)
5 | C[C@@H]1[C@H](O)[C@@H](C)/C=C/C=C/C=C/C=C/C=C/C=C/C=C/[C@H](O[C@@H]2O[C@H](C)[C@@H](O)[C@H](N)[C@@H]2O)C[C@@H]2O[C@](O)(C[C@@H](O)C[C@@H](O)[C@H](O)CC[C@@H](O)C[C@@H](O)CC(=O)O[C@H]1C)C[C@H](O)[C@H]2C(=O)O [Amphotericin B, reference compound] |  |  |  |  |  |  |  |  |  |  |  |  |  | 500 µg/mL (≈ 541 µM) |  | 62.5 µg/mL (≈ 67.6 µM) |  | MIC [6]: 62.5 µg/mL (≈ 67.6 µM)
6 | O=C(O)Cc1ccccc1Nc1c(Cl)cccc1Cl [Diclofenac sodium, reference compound] |  |  | 63% | 23 ± 4 |  | 0.41 ± 0.11 | 0.59 ± 0.13 | 0.83 ± 0.19 | 1.21 ± 0.39 | 30% | 46% |  |  |  |  |  |  | Number of Writhing ([1]; listed as diclofenac sodium): 23; % Inhibition of Edema, 4 h [3]: 46%
7 | CN(C)[C@@H]1C(O)=C(C(N)=O)C(=O)[C@@]2(O)C(O)=C3C(=O)c4c(O)cccc4[C@@](C)(O)[C@H]3C[C@@H]12 [Tetracycline, reference compound] | 128 µg/mL (≈ 288 µM) | 512 µg/mL (≈ 1150 µM) |  |  |  |  |  |  |  |  |  | 512 µg/mL (≈ 1150 µM) |  |  |  |  | 8 µg/mL (≈ 18 µM) | MIC [7]: 500 µg/mL (≈ 1130 µM)
